The values that follow come from PubChem BioAssay AID179 (DTP/NCI, 2004).

One may read the EC50 as the concentration at which the effect is half-maximal. What is called IC50 is the point on the concentration scale where inhibition reaches its midpoint.

The test system of the assay is CEM cells HIV-1 protection, formazan growth assay. The assay can be described thus: NCI AIDS Antiviral Assay. The conditions noted are these: for IC50: measured here: growth of uninfected CEM cells. In outline: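 Steps: treat uninfected and HIV-1-infected human CEM cells at five drug levels; quantify growth by soluble formazan; retest any compound reaching 50% protection; classify actives from the retest.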

Structures are written as SMILES. Calls of active or inactive are those of the source.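 Rule for the calls: active = compounds giving half or more protection of infected cells from virus-caused growth loss, again on retest; inactive = the rest.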 Where a SMILES comes first, the peptide text is derived from it. The star is where a group is joined. Myristoyl = CCCCCCCCCCCCCC(=O)*

For the compound `O=S1(=O)C(c2cccc(C(F)(F)F)c2)=C(O)c2cc3ccccc3nc21`, the outcome was inactive.
With `CC(C)=C/C(CC(O)(C(F)(F)F)C(F)(F)F)=N\O`, the EC50 is greater than 200 µM and the IC50 was greater than 200 µM.
As for `Cc1ccc(N=Nc2c(C)c(C#N)c(=S)n(C3OC(CO)C(O)C(O)C3O)c2-c2ccccc2)cc1` (centres undefined), the EC50 was greater than 200 µM and the IC50 came out at 18.6 µM.
For `Cc1ccc(C2CC3(c4ccccc4)ON=C(c4ccccc4)N3c3ccccc3S2)cc1` (centres undefined), in that order: greater than 200 µM and 41.7 µM.
Turning to `CC1OC(O[C@H]2C3C=CO[C@@H](OC4OC(CO)C(O)C(O)C4O)C3[C@@]3(COC(=O)/C=C/c4ccc(O)cc4)O[C@@H]23)C(O)C(O)C1O` (some centres undefined), the EC50 is greater than 200 µM and the IC50 is greater than 200 µM.
Take `CCOC(=O)CCN1C(=O)c2ccc(NC(=O)C(=O)O)cc2S1(=O)=O`: the EC50 was greater than 200 µM and the IC50 was greater than 200 µM.
For the compound `NS(=O)(=O)c1cc2c(cc1C(F)(F)F)NCNS2(=O)=O`, the EC50 was greater than 759 µM and the IC50 was greater than 759 µM.
As to `C=C(C)[C@@H]1CC[C@@H](C)C[C@H]1OC(C)=O`, the EC50 was greater than 200 µM and the IC50 was greater than 200 µM.
With `CC(NCCNC(C)C(=O)O)C(=O)O` (centres undefined), the EC50 was greater than 676 µM and the IC50 is greater than 676 µM.
Turning to `Cc1cn(C2CC(O)C(CO)(C(F)(F)F)O2)c(=O)[nH]c1=O` (centres undefined), the EC50 was greater than 200 µM and the IC50 was greater than 200 µM.
For `COc1ccc2[nH]c(=O)cc(C)c2c1[N+](=O)[O-]`, the outcome was inactive.
Regarding `CNC(C)C#N` (centres undefined), the result was inactive.
For the compound `CC(C)[Si]1(C(C)C)OCC2OC(n3cnc4c(N)ncnc43)C(N)C2O[Si](C(C)C)(C(C)C)O1` (centres undefined), the EC50 is greater than 200 µM and the IC50 was determined as 8.51 µM.
Take `CCC1(O)C(=O)Nc2ccc(OC)cc2C1=O` (centres undefined): the result was inactive.
On to `O=C(NC1C(=O)NNC1c1cccc([N+](=O)[O-])c1)c1ccccc1` (centres undefined), for which the EC50 was greater than 288 µM and the IC50 is greater than 288 µM.
On to `O=C1C2CCC(C2)C12CC1(c3ccccc3)C(=O)c3ccccc3N1O2` (centres undefined), for which the EC50 is greater than 28.8 µM and the IC50 was 27.5 µM.
For `CC(=O)Nc1sc([N+](=O)[O-])cc1S(=O)(=O)c1ccc(Cl)cc1`, in that order: greater than 200 µM and 1.48 µM.
The corresponding values for `CC(=O)OCC1C(OC(C)=O)CC2CCC1N2C#N` (centres undefined) are greater than 200 µM and greater than 200 µM.
For the compound `O=C(O)C(O)C(O)C(O)C(O)C(O)C(O)CO` (centres undefined), the outcome was inactive.
Turning to `CC1OC(OC2C(OC(=O)[C@]34CCC(C)(C)CC3C3=CCC5[C@@]6(C)C[C@H](O)[C@H](OC7OC(CO)C(O)C(O)C7N)[C@@](C)(C(=O)O)C6CC[C@@]5(C)C3(C)CC4)OCC(O)C2O)C(O)C(O)C1OC1OCC(O)C(O)C1O` (some centres undefined), the EC50 was greater than 123 µM and the concentration for half-maximal inhibition (IC50) was greater than 123 µM.
In the case of `COC(=O)CN1CCN(c2cccc3c2CCCC3)CC1`, the EC50 is greater than 200 µM and the IC50 turned out to be 64.6 µM.
For `Cc1ccc(C(=O)OC[C@H]2CC[C@@H](n3cc(N(C)C4CCCCC4)c(=O)[nH]c3=O)O2)cc1`, in that order: greater than 200 µM and 53.7 µM.
For the compound `CC(CCC(=O)O)[C@H]1CCC2[C@@H]3C(=O)C[C@@H]4CC(O)CC[C@]4(C)C3CC[C@@]21C` (some centres undefined), the result was inactive.
On to `COc1ccc(-c2oc(/C=N/NC(N)=S)c([N+](=O)[O-])c2-c2ccc(OC)c(OC)c2)cc1OC`, for which the EC50 is greater than 20.4 µM and the half-inhibitory concentration (IC50) is greater than 20.4 µM.
Consider `O=c1ccnc2ccc3n[nH][nH]c3c12`, for which the outcome was inactive.
The same measure, in the same setting: to `Cc1cccc2c1C(=O)OC2(c1cccc2ccccc12)c1cccc2ccccc12` belongs “inactive”.
With `O=c1c2cc(Br)cc(Br)c2[nH]c(=S)n1-c1ccccc1`, the EC50 is greater than 316 µM and the IC50 worked out at 126 µM.
As for `CCCCCCCCCCCCC1=C(OC)C(=O)c2cccnc2C1=O`, the outcome was inactive.
On to `CCCCOP(=O)(OCCCC)OP(=O)(OCCCC)OCCCC`, for which the EC50 is greater than 200 µM and the IC50 was greater than 200 µM.
`O=C(O)COCC(=O)N(CCOCCN(Cc1ccccc1)C(=O)COCC(=O)O)Cc1ccccc1`: the EC50 is greater than 200 µM and the IC50 is greater than 200 µM.
For `COc1ccc2nc3cccc([N+](=O)[O-])c3c(NCCNCCN(C)C)c2c1`, the EC50 is greater than 2 µM and the IC50 was 0.105 µM.
`Cc1ccc2nc3nc(C)c(C)nc3nc2c1`: the EC50 is 1.15 µM and the IC50 was found to be 14.5 µM.
For `COC(=O)/C=C\C(C#N)(C#N)N=Cc1ccc(Br)s1`, the EC50 is greater than 2 µM and the IC50 was determined as 1.1 µM.
For `COC(=O)/C(=N\O)C(C(=O)C=C(C)C)C(=O)C(=O)Nc1ccccc1C` (centres undefined), in that order: greater than 692 µM and greater than 692 µM.
For `CSC1CC2C(CC1(C)SC)C2(C)C` (centres undefined), in that order: greater than 155 µM and greater than 155 µM.
The corresponding values for `CC(N)CNCC(C)N` (centres undefined) are greater than 200 µM and greater than 200 µM.
In the case of `CN(C)c1ccc(C=C2c3ccccc3-c3ccccc32)cc1`, the EC50 is greater than 17.4 µM and the IC50 was greater than 17.4 µM.
In turn, `O=[As](O)(O)c1ccc(F)cc1` showed an EC50 greater than 200 µM and an IC50 greater than 200 µM.
Consider `CN(NC(=O)/C(=C/c1ccc(O)cc1)NC(=O)c1ccccc1)c1ccnc2cc(Cl)ccc12`, for which the EC50 was greater than 200 µM and the IC50 worked out at 10.2 µM.
The corresponding values for `NNC(=O)C1C2c3ccccc3C(c3ccccc32)C1C(=O)O` (centres undefined) are greater than 200 µM and greater than 200 µM.
The corresponding values for `O=C(Nc1ccc(Cl)cc1Cl)C1C(=O)C(=O)N(c2ccc(Cl)cc2Cl)C1=O` (centres undefined) are greater than 8.51 µM and greater than 8.51 µM.
For `C[C@@H]([C@H]1[C@H](O)C[C@@]2(C)[C@@H]3C=C[C@H]4C(C)(C)[C@@H](N(C)C)CC[C@@]45C[C@@]35CC[C@]12C)N(C)C`, in that order: greater than 100 µM and greater than 100 µM.
Consider `CC(C)n1c(=O)[nH]n(-c2ccccc2)c1=O`, for which the EC50 was greater than 200 µM and the IC50 is greater than 200 µM.
`CN(C)C(=S)SSSSC(=S)N(C)C`: the EC50 was greater than 2 µM and the IC50 amounted to 0.525 µM.
In the case of `CCOC(=O)C(C)NC(=O)C(C)NC(=O)C(C)NC(=O)C(C)NC(=O)C(C)NC(=O)OCc1ccccc1` (centres undefined), the EC50 was greater than 200 µM and the IC50 is greater than 200 µM.
As for `CCC1=CCN(c2ccc(C)cc2)OC1c1ccc(OC)cc1` (centres undefined), the EC50 was greater than 32.4 µM and the IC50 was greater than 32.4 µM.
For the compound `CSc1ccc(C2OC(=O)c3ccccc32)c2ccccc12` (centres undefined), the EC50 is greater than 17 µM and the IC50 was greater than 17 µM.
With `COC1OC(=O)C(OC)C(OC)C1OC` (centres undefined), the outcome was inactive.
As for `CC1(C)OC(=O)C(c2cccs2)C(=O)O1`, the EC50 was greater than 44.7 µM and the IC50 was greater than 44.7 µM.
Turning to `c1ccc2[nH]c(-c3nc4ccccc4s3)nc2c1`, the EC50 is greater than 15.1 µM and the IC50 came to 5.37 µM.
The corresponding values for `COc1cc(N=CNc2cc(OC)n[n+]([O-])c2)c[n+]([O-])n1` are greater than 224 µM and greater than 224 µM.
For `Nc1ncc(C=O)c(NCC2(CO)CCC2)n1`, in that order: greater than 200 µM and 20.9 µM.
For `CC1(O)N2CCCC1(c1ccccc1)CC2` (centres undefined), in that order: greater than 1150 µM and 178 µM.
`CN1C/C(=C\c2ccc(N(C)C)cc2)C(=O)/C(=C/c2ccc(N(C)C)cc2)C1`: the EC50 was greater than 100 µM and the IC50 is greater than 100 µM.
Regarding `CCCn1ccc(=O)c(O)c1C`, the EC50 is greater than 200 µM and the IC50 was determined as 35.5 µM.
The corresponding values for `N/C(=N/O)c1nsnc1/C(N)=N\O` are greater than 200 µM and greater than 200 µM.
On to `c1ccc(CCC2=Nc3ccccc3CO2)cc1`, for which the EC50 is greater than 110 µM and the 50% inhibitory concentration (IC50) is greater than 110 µM.
Take `Cn1c2ccccc2c2cc(N3CCCC3)c3c(c21)C(=O)N(c1ccccc1)C3=O`: the EC50 is greater than 200 µM and the 50% inhibitory concentration (IC50) was greater than 200 µM.
In the case of `CC(=O)O[C@H]1C(N(C)C(=O)c2ccccc2)CC[C@]2(C)C3CC[C@@]4(C)C(CC(O)[C@@H]4C(C)N(C)C)[C@@H]3CCC12` (some centres undefined), the EC50 is greater than 25.1 µM and the IC50 is greater than 25.1 µM.
Consider `COc1ccc(OC)c(CCc2cc(OC)ccc2OC)c1`, for which the EC50 was greater than 200 µM and the half-maximal inhibitory concentration (IC50) stood at 1.26 µM.
The corresponding values for `CN(C)CCN1C(=O)c2ccccc2C1(O)c1ccc(Cl)cc1` (centres undefined) are greater than 200 µM and 44.7 µM.
For `C=CCCC1CCCNC1=S` (centres undefined), in that order: greater than 776 µM and 708 µM.
The corresponding values for `CC(=O)O[C@H]1C#C/C=C\C#CC[C@@H]2C(=O)N(C(=O)OC(C)(C)C)[C@@H]12` are greater than 20 µM and 1.12 µM.
Consider `Cc1ccc2nc(N/N=C/c3sccc3C)cc(C)c2c1`, for which the EC50 is greater than 200 µM and the IC50 worked out at 49 µM.
`Cc1oc2ccccc2c(=O)c1C`: the result was inactive.
As for `CCN(CC)C(c1ccc(N(C)C)cc1)C(c1ccc(N(C)C)cc1)N(CC)CC` (centres undefined), the EC50 is greater than 158 µM and the IC50 was determined as 42.7 µM.
The corresponding values for `C=Cc1cc[n+](Cc2ccc(C[n+]3ccc(C=C)cc3)cc2)cc1` are greater than 166 µM and 85.1 µM.
For `N#C/C(=C\c1cc(F)cc(F)c1)c1ccccn1`, in that order: greater than 200 µM and 26.3 µM.
For the compound `COC(=O)[C@@]12C=CC(=O)[C@H]3C[C@@H](C(C(C)C)C1)[C@]32OC` (some centres undefined), the outcome was inactive.
Turning to `CCCCCCCCCCCCCC(=O)NCC(=O)NC(CO)C(=O)NC(CO)C(=O)NC(CCCCN)C(=O)NC(CO)C(=O)NC(CCCCN)C(=O)N1CCCC1C(=O)NC(CCCCN)C(=O)NC(CC(=O)O)C(N)=O` (centres undefined) (Myristoyl-GSSKSKPKD-NH2; configuration not given here), the EC50 is greater than 219 µM and the IC50 was greater than 219 µM.
As to `C1CCC(CC2CCC(NC3=NCCO3)CC2)CC1` (centres undefined), the EC50 was greater than 200 µM and the half-inhibitory concentration (IC50) came out at 31.6 µM.
With `COc1ccc2c(c1)[C@@H]1c3cc(OC)c(OC)cc3CCN1CCC2`, the EC50 was greater than 200 µM and the IC50 was greater than 200 µM.
As to `Cn1c(=N)n(CC(=O)NC23CC4CC(CC(C4)C2)C3)c2ccccc21`, the EC50 is greater than 347 µM and the half-maximal inhibitory concentration (IC50) stood at 66.1 µM.
